For data set [1], the system named is Mustela putorius furo. Briefly: Compound was tested for inhibition of emetic response in ferret by administering intravenously following emetogen challenge after 3 min (iv). Type of data set: functional.
The subject of data set [2] is Mustela putorius furo. Kind of data set: Compound was tested for inhibition of emetic response in ferret by administering perorally following emetogen challenge after 60 min (po). Type of data set: functional.
The test system of data set [3] is Gerbillinae. Briefly: Ability to inhibit the foot tapping in gerbil immediately following central infusion of GR-73632 (agonist), 5 min after intravenous administration of compound. The data set is classed as functional. Particulars: read-out: ID50 (the source's name).
A further data set concerns the target Substance-P receptor (Homo sapiens, UniProt P25103). Briefly: Displacement of [125I]-labeled substance P from the cloned human Tachykinin receptor 1 expressed in CHO cells. The data set is classed as cell-based. On the technique in general: Displacement assays read how much labelled ligand stays bound in the presence of the test substance.
Data set [4] in a line: Half-life in rat. The data set is classed as ADME, organism-based. Particulars: in vivo.
Data set [5] can be described thus: Bioavailability in dog. The data set is classed as ADME, organism-based, Canis lupus familiaris. Conditions: in vivo.
Data set [6] in a line: Bioavailability in rat. Type of data set: ADME, organism-based. Particulars: in vivo.
Data set [7] is described as follows: Half-life in Dog. The data set is classed as ADME, organism-based, Canis lupus familiaris. Particulars: in vivo.
The subject of data set [8] is Gerbillinae. Kind of data set: Ability to inhibit the foot tapping in gerbil immediately following central infusion of GR-73632 (agonist), 5 min after intravenous administration of compound (1 mg/kg). The data set is classed as functional.

Sequence of Substance-P receptor (P25103 whole entry): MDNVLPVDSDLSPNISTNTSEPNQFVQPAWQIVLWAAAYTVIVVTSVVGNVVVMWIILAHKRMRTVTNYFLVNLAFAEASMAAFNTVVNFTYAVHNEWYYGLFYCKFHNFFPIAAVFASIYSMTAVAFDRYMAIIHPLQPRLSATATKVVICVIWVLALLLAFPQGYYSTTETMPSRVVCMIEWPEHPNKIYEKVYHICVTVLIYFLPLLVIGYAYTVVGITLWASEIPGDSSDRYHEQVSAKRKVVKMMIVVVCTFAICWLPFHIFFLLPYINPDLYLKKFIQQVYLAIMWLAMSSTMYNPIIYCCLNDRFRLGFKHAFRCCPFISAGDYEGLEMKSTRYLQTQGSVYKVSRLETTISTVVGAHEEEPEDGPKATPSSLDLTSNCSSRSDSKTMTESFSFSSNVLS

Broadly, the IC50 is the concentration that inhibits the measured activity by half. Take `COc1ccc(OC(F)(F)F)cc1[C@H]1COC2(CCCN[C@H]2c2ccccc2)C1` (stereo not given in full): the ID90 in the data set with Mustela putorius furo [1] came out at 1 mg/kg; with Mustela putorius furo [2], 3 mg/kg. Moreover, in the data set on Gerbillinae [3], the ED50 worked out at 0.3 mg/kg. This compound also yielded an IC50 at Substance-P receptor of 0.3 nM.
The compound `COc1ccccc1[C@H]1COC2(CCCNC2c2ccccc2)C1` (stereo not given in full) registered an IC50 on Substance-P receptor of 6.5 nM.
The term half-life denotes the time in which the quantity being followed falls by half. The low end stands for fast loss, the high end for slow loss. What is called bioavailability is dose-corrected exposure relative to a reference, in per cent. For `COc1ccc(-n2nnnc2C(F)(F)F)cc1[C@H]1COC2(CCCNC2c2ccccc2)C1` (stereo not given in full), the ID90 was 0.2 mg/kg with Mustela putorius furo [1] and 1 mg/kg with Mustela putorius furo [2]. In addition, the half-life was 1.7 h in data set [4] and 2.7 h in data set [7]. For the same compound, the results for the bioavailability in data set [5] and in [6] were 79% and 16%, respectively. Also, the ED50 in the data set on Gerbillinae [3] amounted to 0.1 mg/kg. At Substance-P receptor, this compound showed an IC50 of 0.11 nM.
In general, Inhibition refers to the change of the read-out against control, counted positive when it falls. On Substance-P receptor, `COc1ccc(-n2nnnc2C(F)(F)F)cc1[C@H]1COC2(CCCN(Cc3n[nH]c(O)n3)C2c2ccccc2)C1` (stereo not given in full) gave an IC50 of 0.1 nM. Also, the Inhibition in the data set on Gerbillinae [8] amounted to 6%.
The compound `COc1ccccc1C1=CC2(CCCNC2c2ccccc2)OC1` (stereo not given) yielded an IC50 at Substance-P receptor of 49 nM.
For `COc1ccc(OC(F)(F)F)cc1C1=CC2(CCCNC2c2ccccc2)OC1` (stereo not given), the ED50 in the data set on Gerbillinae [3] worked out at 0.2 mg/kg. This compound came in with an IC50 at Substance-P receptor of 0.35 nM.
For `COc1ccc(-n2nnnc2C(F)(F)F)cc1C1=CC2(CCCN[C@H]2c2ccccc2)OC1` (stereo not given in full), the ED50 in the data set on Gerbillinae [3] was 0.1 mg/kg. Also, the IC50 at Substance-P receptor was found to be 0.08 nM.
For the compound `COc1ccc(OC(F)(F)F)cc1[C@H]1COC2(CCCN(Cc3nc[nH]n3)C2c2ccccc2)C1` (stereo not given in full), the IC50 at Substance-P receptor was 0.89 nM. For the same compound, in the data set with Gerbillinae [8], the Inhibition amounted to 45%.
Turning to `COc1ccc(-n2nnnc2C(F)(F)F)cc1[C@H]1COC2(CCCN(Cc3c[nH]cn3)C2c2ccccc2)C1` (stereo not given in full), the ED50 with Gerbillinae [3] was found to be 0.5 mg/kg. For the same compound, on Substance-P receptor, the IC50 worked out at 0.11 nM.
Regarding `c1ccc([C@H]2COC3(CCCN[C@H]3c3ccccc3)C2)cc1` (stereo not given in full), the IC50 at Substance-P receptor is 133 nM.

Source of the values: ChEMBL document CHEMBL1135347, “Spirocyclic NK(1) antagonists II: [4.5]-spiroethers” (Bioorg Med Chem Lett, 2002).
